Laboratory results from patent publication US12180526B2, “Subterranean microalgae for production of microbial biomass, substances, and compositions” (Kuehnle AgroSystems, Inc., priority 2019, dated 2024).

Experiment: DPPH Radical Scavenging Activity
Settings: DPPH 0.06 mM in methanol
Description: Extraction and isolation of C-PC are carried out as is known in the art (Wu et al. 2016) using commercial grade biomass from a source in Hawaii. The C-PC is then further purified by ultrafiltration using a 10 kDa membrane to obtain an absorbance ratio of A620/A280 of 1.4 and stored frozen as a lyophilized powder. For testing, powder is solubilized in phosphate-citrate buffer to 0.4 mg/mL. Samples are tested for thermal stability at 65° C. for 30 minutes, at pH 6.0, per Example 3. The addition of EPS at a concentration of 1% (w/v; produced from resolubilized lyophilized powder with no added grinding) results in a reduction of the CR value by 13% compared to the control lacking stabilizing agents after exposure to 65° C. for 30 min at pH 6.0. This indicates added stabilization, which can likely be optimized with additional testing. Antioxidant capacity is measured using the DPPH Radical Scavenging Activity as is known in the art (Alam et al. 2013), with the modification of using DPPH (1,1-diphenyl-2-picrylhydrazyl; Sigma-Aldrich D9132) in methanol (0.06 mM), and readings taken on a Biotek Synergy HTX multi-mode microplate reader.

For phycocyanin, the “antioxidant activity IC50” value was 1800 µg/mL.
